Numbers after ± are expanded uncertainties.
Assay: xn = mol fraction of the nth substance listed
Conditions: Liquid, Vibrating tube method

CCCCCCCCCCC [undecane] + CCCCCCC
mass density (313.15 K, 23000 kPa, x2 = 0.05): 740.6 ± 0.4 kg/m3
mass density (313.15 K, 23000 kPa, x2 = 0.7482): 706.2 ± 0.4 kg/m3
mass density (313.15 K, 24000 kPa, x2 = 0.05): 741.3 ± 0.4 kg/m3
mass density (313.15 K, 24000 kPa, x2 = 0.7482): 707 ± 0.4 kg/m3
mass density (313.15 K, 25000 kPa, x2 = 0.05): 741.9 ± 0.4 kg/m3
mass density (313.15 K, 25000 kPa, x2 = 0.7482): 707.7 ± 0.4 kg/m3
mass density (313.16 K, 1000 kPa, x2 = 0.2346): 716.5 ± 0.3 kg/m3
mass density (313.16 K, 2001 kPa, x2 = 0.2346): 717.4 ± 0.3 kg/m3
mass density (313.16 K, 3000 kPa, x2 = 0.2346): 718.3 ± 0.3 kg/m3
mass density (313.16 K, 4001 kPa, x2 = 0.2346): 719.2 ± 0.3 kg/m3
mass density (313.16 K, 5000 kPa, x2 = 0.2346): 720 ± 0.3 kg/m3
mass density (313.16 K, 6000 kPa, x2 = 0.2346): 720.8 ± 0.3 kg/m3
mass density (313.16 K, 7000 kPa, x2 = 0.2346): 721.7 ± 0.3 kg/m3
mass density (313.16 K, 8000 kPa, x2 = 0.2346): 722.5 ± 0.3 kg/m3
mass density (313.16 K, 9000 kPa, x2 = 0.2346): 723.3 ± 0.3 kg/m3
mass density (313.16 K, 10000 kPa, x2 = 0.2346): 724.1 ± 0.3 kg/m3
mass density (313.16 K, 11001 kPa, x2 = 0.2346): 724.8 ± 0.3 kg/m3
mass density (313.16 K, 12000 kPa, x2 = 0.2346): 725.6 ± 0.3 kg/m3
mass density (313.16 K, 13000 kPa, x2 = 0.2346): 726.4 ± 0.3 kg/m3
mass density (313.16 K, 14000 kPa, x2 = 0.2346): 727.1 ± 0.3 kg/m3
mass density (313.16 K, 15000 kPa, x2 = 0.2346): 727.8 ± 0.3 kg/m3
mass density (313.16 K, 16000 kPa, x2 = 0.2346): 728.6 ± 0.4 kg/m3
mass density (313.16 K, 17000 kPa, x2 = 0.2346): 729.3 ± 0.4 kg/m3
mass density (313.16 K, 18000 kPa, x2 = 0.2346): 730 ± 0.4 kg/m3
mass density (313.16 K, 19000 kPa, x2 = 0.2346): 730.7 ± 0.4 kg/m3
mass density (313.16 K, 20000 kPa, x2 = 0.2346): 731.4 ± 0.4 kg/m3
mass density (313.16 K, 21000 kPa, x2 = 0.2346): 732.1 ± 0.4 kg/m3
mass density (313.16 K, 22000 kPa, x2 = 0.2346): 732.7 ± 0.4 kg/m3
mass density (313.16 K, 23000 kPa, x2 = 0.2346): 733.4 ± 0.4 kg/m3
mass density (313.16 K, 24000 kPa, x2 = 0.2346): 734 ± 0.4 kg/m3
mass density (313.16 K, 25000 kPa, x2 = 0.2346): 734.7 ± 0.4 kg/m3
mass density (323.09 K, 1001 kPa, x2 = 0.9511): 663.1 ± 0.3 kg/m3
mass density (323.09 K, 2000 kPa, x2 = 0.9511): 664.3 ± 0.3 kg/m3
mass density (323.09 K, 3000 kPa, x2 = 0.9511): 665.4 ± 0.3 kg/m3
mass density (323.09 K, 4000 kPa, x2 = 0.9511): 666.6 ± 0.3 kg/m3
mass density (323.09 K, 5000 kPa, x2 = 0.9511): 667.7 ± 0.3 kg/m3
mass density (323.09 K, 6000 kPa, x2 = 0.9511): 668.8 ± 0.3 kg/m3
mass density (323.09 K, 7000 kPa, x2 = 0.9511): 669.9 ± 0.3 kg/m3
mass density (323.09 K, 8000 kPa, x2 = 0.9511): 670.9 ± 0.3 kg/m3
mass density (323.09 K, 9000 kPa, x2 = 0.9511): 672 ± 0.3 kg/m3
mass density (323.09 K, 10000 kPa, x2 = 0.9511): 673 ± 0.3 kg/m3
mass density (323.09 K, 11000 kPa, x2 = 0.9511): 674 ± 0.4 kg/m3
mass density (323.09 K, 12000 kPa, x2 = 0.9511): 675 ± 0.4 kg/m3
mass density (323.09 K, 13000 kPa, x2 = 0.9511): 675.9 ± 0.4 kg/m3
mass density (323.09 K, 14001 kPa, x2 = 0.9511): 676.9 ± 0.4 kg/m3
mass density (323.09 K, 15001 kPa, x2 = 0.9511): 677.8 ± 0.4 kg/m3
mass density (323.09 K, 16000 kPa, x2 = 0.9511): 678.7 ± 0.4 kg/m3
mass density (323.09 K, 17001 kPa, x2 = 0.9511): 679.6 ± 0.4 kg/m3
mass density (323.09 K, 18001 kPa, x2 = 0.9511): 680.5 ± 0.4 kg/m3
mass density (323.09 K, 19000 kPa, x2 = 0.9511): 681.4 ± 0.4 kg/m3
mass density (323.09 K, 20000 kPa, x2 = 0.9511): 682.3 ± 0.4 kg/m3
mass density (323.09 K, 21001 kPa, x2 = 0.9511): 683.1 ± 0.4 kg/m3
mass density (323.09 K, 22000 kPa, x2 = 0.9511): 683.9 ± 0.4 kg/m3
mass density (323.09 K, 23001 kPa, x2 = 0.9511): 684.8 ± 0.5 kg/m3
mass density (323.09 K, 24000 kPa, x2 = 0.9511): 685.6 ± 0.5 kg/m3
mass density (323.09 K, 25000 kPa, x2 = 0.9511): 686.3 ± 0.5 kg/m3
mass density (323.11 K, 2001 kPa, x2 = 0.5063): 695.8 ± 0.3 kg/m3
mass density (323.11 K, 3000 kPa, x2 = 0.5063): 696.8 ± 0.3 kg/m3
mass density (323.11 K, 4000 kPa, x2 = 0.5063): 697.8 ± 0.3 kg/m3
mass density (323.11 K, 5000 kPa, x2 = 0.5063): 698.8 ± 0.3 kg/m3
mass density (323.11 K, 6000 kPa, x2 = 0.5063): 699.7 ± 0.3 kg/m3
mass density (323.11 K, 7000 kPa, x2 = 0.5063): 700.7 ± 0.3 kg/m3
mass density (323.11 K, 8001 kPa, x2 = 0.5063): 701.6 ± 0.3 kg/m3
mass density (323.11 K, 9000 kPa, x2 = 0.5063): 702.5 ± 0.3 kg/m3
mass density (323.11 K, 10000 kPa, x2 = 0.5063): 703.4 ± 0.3 kg/m3
mass density (323.11 K, 11000 kPa, x2 = 0.5063): 704.3 ± 0.3 kg/m3
mass density (323.11 K, 12000 kPa, x2 = 0.5063): 705.1 ± 0.3 kg/m3
mass density (323.11 K, 13000 kPa, x2 = 0.5063): 706 ± 0.3 kg/m3
mass density (323.11 K, 14000 kPa, x2 = 0.5063): 706.8 ± 0.4 kg/m3
mass density (323.11 K, 15000 kPa, x2 = 0.5063): 707.6 ± 0.4 kg/m3
mass density (323.11 K, 16000 kPa, x2 = 0.5063): 708.5 ± 0.4 kg/m3
mass density (323.11 K, 17001 kPa, x2 = 0.5063): 709.3 ± 0.4 kg/m3
mass density (323.11 K, 18000 kPa, x2 = 0.5063): 710.1 ± 0.4 kg/m3
mass density (323.11 K, 19000 kPa, x2 = 0.5063): 710.8 ± 0.4 kg/m3
mass density (323.11 K, 20000 kPa, x2 = 0.5063): 711.6 ± 0.4 kg/m3
mass density (323.11 K, 21001 kPa, x2 = 0.5063): 712.4 ± 0.4 kg/m3
mass density (323.11 K, 22050 kPa, x2 = 0.5063): 713.1 ± 0.4 kg/m3
mass density (323.11 K, 23000 kPa, x2 = 0.5063): 713.9 ± 0.4 kg/m3
mass density (323.11 K, 24000 kPa, x2 = 0.5063): 714.6 ± 0.4 kg/m3
mass density (323.11 K, 25000 kPa, x2 = 0.5063): 715.3 ± 0.4 kg/m3
mass density (323.12 K, 1000 kPa, x2 = 0.7482): 679.1 ± 0.3 kg/m3
mass density (323.12 K, 1001 kPa, x2 = 0.05): 716.7 ± 0.3 kg/m3
mass density (323.12 K, 2000 kPa, x2 = 0.7482): 680.2 ± 0.3 kg/m3
mass density (323.12 K, 2001 kPa, x2 = 0.05): 717.6 ± 0.3 kg/m3
mass density (323.12 K, 3000 kPa, x2 = 0.05): 718.5 ± 0.3 kg/m3
mass density (323.12 K, 3000 kPa, x2 = 0.7482): 681.3 ± 0.3 kg/m3
mass density (323.12 K, 4000 kPa, x2 = 0.05): 719.4 ± 0.3 kg/m3
mass density (323.12 K, 4000 kPa, x2 = 0.7482): 682.3 ± 0.3 kg/m3
mass density (323.12 K, 5000 kPa, x2 = 0.05): 720.3 ± 0.3 kg/m3
mass density (323.12 K, 5000 kPa, x2 = 0.7482): 683.4 ± 0.3 kg/m3
mass density (323.12 K, 6000 kPa, x2 = 0.05): 721.1 ± 0.3 kg/m3
mass density (323.12 K, 6000 kPa, x2 = 0.7482): 684.4 ± 0.3 kg/m3
mass density (323.12 K, 7000 kPa, x2 = 0.05): 722 ± 0.3 kg/m3
